Experiment [1] relates to HEL. Nature of the experiment: Minimum antiviral concentration required to reduce virus-induced cytopathogenicity against TK' VZV (YS/R) in HEL cells. The format is functional, Homo sapiens. For orientation: Protection from cytopathic effect is a common read-out in antiviral testing.
Experiment [2] can be described thus: Minimum antiviral concentration required to reduce virus-induced cytopathogenicity against TK-HSV-1 (B2006) in E6SM cells. The format is functional.
Experiment [3] has as its system HEL. Nature of the experiment: Minimum antiviral concentration required to reduce virus-induced cytopathogenicity against VZV (OKA) in HEL cells. It is filed as functional, Homo sapiens.
A short description of experiment [4]: Minimum antiviral concentration required to reduce virus-induced cytopathogenicity against HSV-2 (G) in E6SM cells. The format is functional.
The test system of experiment [5] is HEL. Nature of the experiment: Minimum antiviral concentration required to reduce virus-induced cytopathogenicity against VZV (YS) in HEL cells. The format is functional, Homo sapiens.
A short description of experiment [6]: Minimum antiviral concentration required to reduce virus-induced cytopathogenicity against HSV-1 (KOS) in E6SM cells. The format is functional.
A short description of experiment [7]: Minimum antiviral concentration required to reduce virus-induced cytopathogenicity against vaccinia virus in E6SM cells. It is filed as functional.
Experiment [8] is described as follows: Minimum antiviral concentration required to reduce virus-induced cytopathogenicity against TK' HSV-1 (VMW 1837) in E6SM cells. It is filed as functional.
Experiment [9] is described as follows: Minimum cytotoxic concentration required to cause alteration of normal E6SM cell culture morphology. It is filed as functional. As to conditions: read-out: Min cytotoxic concentration.
The test system of experiment [10] is HEL. Nature of the experiment: Minimum antiviral concentration required to reduce virus-induced cytopathogenicity against TK' VZV (07/1) in HEL cells. It is filed as functional, Homo sapiens.
Experiment [11] deals with HEL. Nature of the experiment: Minimum cytotoxic concentration required to cause alteration of normal human […] (HEL) morphology. It is filed as functional. As to conditions: read-out: Min cytotoxic concentration.
A short description of experiment [12]: Minimum antiviral concentration required to reduce virus-induced cytopathogenicity against TK' HSV-1 (B2006) in E6SM cells. It is filed as functional.
Experiment [13] is described as follows: Minimum antiviral concentration required to reduce virus-induced cytopathogenicity against Vaccinia virus in E6SM cells. The format is functional.
The subject of experiment [14] is HEL. The experiment can be described thus: Minimum cytotoxic concentration required to cause alteration of normal human […] (HEL) morphology in HEL cells. The format is functional. As to conditions: read-out: Min cytotoxic concentration.

In the case of `O=c1[nH]c(=O)n([C@H]2C[C@H](O)[C@@H](CO)O2)cc1C(F)=C(F)F`, the Min antiviral concentration in the experiment with HEL [1] is 11.6 µg/mL; in experiment [2], 13 µg/mL; with HEL [3] it was 0.16 µg/mL; in experiment [4] it was 13 µg/mL; in the experiment on HEL [5] it was 0.55 µg/mL; in experiment [6], 0.05 µg/mL. Besides, the Min antiviral concentration worked out at 8 µg/mL in [7], 1.5 µg/mL in experiment [8] and 13.6 µg/mL with HEL [10]. Further, the MCC in experiment [9] turned out to be 100 µg/mL; with HEL [11], 10 µg/mL.
With `O=c1[nH]c(=O)n([C@H]2C[C@H](O)[C@@H](CO)O2)cc1/C=C/Br` [BRIVUDINE], the Min antiviral concentration with HEL [1] is above 10 µg/mL; with HEL [3], 0.002 µg/mL; in experiment [4], 100 µg/mL; with HEL [5], 0.004 µg/mL; in experiment [6] it was 0.02 µg/mL; in [8] it was 40 µg/mL. Moreover, the figures for the Min antiviral concentration (in the experiment with HEL [10]; in experiment [12]; in [13]) were above 10 µg/mL, 100 µg/mL and 0.3 µg/mL, respectively. For the same molecule, the MCC (in experiment [9]; in the experiment with HEL [14]) was 200 µg/mL each time.

Values taken from ChEMBL document CHEMBL1126453, “Synthesis and anti-herpes activity of 5-trifluorovinyl-2-deoxyuridine” (1992).
